Experimental findings from patent US20250108048A1, “STING AGONIST COMPOUNDS AND CONJUGATES” (SUTRO BIOPHARMA, INC., priority 2023, published 2025) are described below.

Experiment [1] relates to NCI-H292 cells. As to the kind of experiment: Immunogenic cell death markers (HMGB1 release, surface calreticulin). The experiment is classed as cell-based, human. The following applies: 48 hours. Here is the method: Immunogenic cell death elicited by the TROP2 ADC, iSAC, and exatecan were measured by cell surface translocate of calreticulin and release of HMGB1 in the cell culture supernatant. Briefly, TROP2 positive cell line NCI-H292 were seeded into a 96-well flat bottom plate 4 hours prior to the initialization of the assay. Test articles were formulated at a 2× starting concentration in cell culture medium, and samples were serial diluted (1:3) under sterile conditions and added onto the cells in duplicates. After incubation at 37° C. in a CO2 incubator for 48 hours, the cell supernatant was collected for measuring HMGB1 and the adherent cells were collected for calreticulin expression on the cell surface.
HMGB1 released in the supernatant was assessed via sandwich ELISA using mouse anti-human HMGB1 clone 2F6 (Sigma-Aldrich) as the capture, polyclonal rabbit anti-human HMGB1 (Abcam) as secondary, and polyclonal goat anti-rabbit IgG HRP as the detection antibody. The HMGB1 concentrations in the cell culture medium were calculated based a standard curve built on commercially available recombinant human HMGB1 (R&D Systems).
NCI-H292 cells were detached using Accutase (Innovative Cell Technologies) and viability was accessed using a 1:500 dilution of Zombie NIR viability dye. […] Surface calreticulin measures on the live cells were gathered using an Attune NXT Flow Cytometer (ThermoFisher Scientific) to obtain median fluorescence intensity values. All data were fitted with non-linear regression analysis, using log(agonist) vs. response, variable slope, 4 parameter fit equation using GraphPad Prism.

In experiment [2] the target is T1, hSTING-HAQ haplotype (Homo sapiens, UniProt Q86WV6, G230A/H232R/R293Q/R71H).
T1 construct: host or cells: THP-1-Dual
Briefly: THP-1-Dual reporter assay (endogenous hSTING-HAQ). The experiment is classed as cell-based. To be noted: THP-1-Dual cells (hSTING-HAQ), 24 hours. On the technique in general: In a reporter assay the amount or activity of a reporter protein is the signal.

For experiment [3], the target named is T2, hSTING H232 (Homo sapiens, UniProt Q86WV6). As to the kind of experiment: THP1-Dual KI-hSTING-H232 reporter assay (IRF pathway, secreted Lucia luciferase). Set-up: host or cells: THP1-Dual KI-hSTING-H232 (from THP1-Dual KO-STING). The experiment is classed as cell-based. The following applies: THP1-Dual KI-hSTING-H232 cells, 24 hours; read-out: Reporter assay EC50 (nM) THP-1-H232.

Experiment [4] concerns the target hSTING WT (Homo sapiens, UniProt Q86WV6). Briefly: Surface plasmon resonance, hSTING WT. To be noted: read-out: hSTING WT SPR (Kd). Type of experiment: binding. For orientation: SPR reads the build-up and loss of mass on a sensor chip optically.
Experiment [5] concerns the target hSTING AQ (Homo sapiens, UniProt Q86WV6, G230A/H232R/R293Q). As to the kind of experiment: Surface plasmon resonance, hSTING AQ. Type of experiment: binding. The following applies: read-out: hSTING AQ SPR (Kd).
For experiment [6], the target named is T2, hSTING H232. As to the kind of experiment: Surface plasmon resonance, hSTING H232. Type of experiment: binding. The following applies: read-out: hSTING H232 SPR (Kd).

Bounds are passed on as bounds.

T2 sequence (Q86WV6 whole entry): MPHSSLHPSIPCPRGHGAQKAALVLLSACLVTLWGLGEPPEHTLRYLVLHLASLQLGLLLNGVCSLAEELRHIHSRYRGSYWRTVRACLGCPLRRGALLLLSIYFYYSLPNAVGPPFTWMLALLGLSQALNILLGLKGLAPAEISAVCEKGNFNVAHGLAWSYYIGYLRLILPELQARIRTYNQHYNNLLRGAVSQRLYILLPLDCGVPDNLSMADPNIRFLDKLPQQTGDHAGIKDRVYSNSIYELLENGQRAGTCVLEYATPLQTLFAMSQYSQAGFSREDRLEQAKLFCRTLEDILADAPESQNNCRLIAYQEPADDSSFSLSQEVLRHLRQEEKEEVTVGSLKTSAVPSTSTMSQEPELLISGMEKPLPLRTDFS
hSTING AQ, sequence (Q86WV6 whole entry G230A/H232R/R293Q): as the sequence (Q86WV6 whole entry) above, with G230A, H232R, R293Q counted along it
T1 sequence (Q86WV6 whole entry R71H/G230A/H232R/R293Q): as the sequence (Q86WV6 whole entry) above, with R71H, G230A, H232R, R293Q counted along it
hSTING WT, sequence (Q86WV6 whole entry H232R): as the sequence (Q86WV6 whole entry) above, with H232R counted along it

One may read the EC50 as the concentration at which the effect is half-maximal. By Kd is commonly meant a measure of binding affinity in units of concentration. On to `CCn1nc(C)cc1C(=O)Nc1nc2cc(C(N)=O)cc(OC)c2n1C/C=C/Cn1c(NC(=O)c2cc(C)nn2CC)nc2cc(C(N)=O)cc(OCCCN3CCC(c4nnc5n4CCNC5)CC3)c21` [Compound 4, 1-[(E)-4-[5-carbamoyl-2-[(2-ethyl-5-methyl-pyrazole-3-carbonyl)amino]-7-[3-[4-(5,6,7,8-tetrahydro-[1,2,4]triazolo[4,3-a]pyrazin-3-yl)-1-piperidyl]propoxy]benzimidazol-1-yl]but-2-enyl]-2-[(2-ethyl-5-methyl-pyrazole-3-carbonyl)amino]-7-methoxy-benzimidazole-5-carboxamide; 2,2,2-trifluoroacetic acid], for which the “HMGB-1 Release Span” value in experiment [1] was found to be 11 ng/mL. Further, the EC50 in experiment [1] (Homo sapiens, sandwich ELISA, read-out: HMGB-1 Release EC50) is 7.45 nM; in experiment [2] it was 50 to 150 nM; in experiment [3], more than 150 nM. In addition, the Kd in experiment [4], in experiment [5] and in experiment [6] was not above 20 nM throughout.
